The values that follow come from article PMC12095868, “The Fsr transporter of Sinorhizobium meliloti contributes to antimicrobial resistance and symbiosis with alfalfa” (Microbiology, 2025).

This test concerns the target T1, Fsr (Sinorhizobium meliloti, UniProt Q92RK8).
T1 construct: native full-length protein in S. meliloti 1021 cells, compared with fsr::loxSp null mutant; 398 residues; MFS membrane transporter
Kind of test: fluorometric accumulation and efflux assay, wild-type versus fsr null mutant cells. Type of test: cell-based. The conditions noted are these: whole cells, 10 ug/ml EtBr, 0.4% glucose as energy source; CCCP 25 ug/ml as decoupler in parallel; proton-dependent efflux.

T1 sequence (Q92RK8 entry or part of it): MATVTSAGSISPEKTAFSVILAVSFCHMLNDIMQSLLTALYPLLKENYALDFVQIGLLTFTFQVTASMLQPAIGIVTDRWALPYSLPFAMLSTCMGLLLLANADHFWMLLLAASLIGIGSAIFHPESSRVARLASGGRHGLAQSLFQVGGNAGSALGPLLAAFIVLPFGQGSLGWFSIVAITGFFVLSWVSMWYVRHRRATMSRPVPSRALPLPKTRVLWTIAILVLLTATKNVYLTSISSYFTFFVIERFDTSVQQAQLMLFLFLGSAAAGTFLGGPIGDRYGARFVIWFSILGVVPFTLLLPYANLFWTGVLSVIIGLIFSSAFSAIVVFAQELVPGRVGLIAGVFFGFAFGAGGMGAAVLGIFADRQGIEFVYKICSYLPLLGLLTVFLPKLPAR

Take `CC[n+]1c(-c2ccccc2)c2cc(N)ccc2c2ccc(N)cc21` [EtBr, ethidium bromide]: the “fluorometric accumulation and efflux assay, wild-type versus fsr null mutant cel” value is “The rate and extent of EtBr efflux were higher in the wild type”.
